Experimental data from PMC10150354, “Linearization of the Brevicidine and Laterocidine Lipopeptides Yields Analogues That Retain Full Antibacterial Activity” (Journal of Medicinal Chemistry, 2023).
Converted amounts (≈) assume the structure as drawn. Where a SMILES comes first, the peptide text is derived from it. [ ]: non-standard residue; d: D form. The star is where a group is joined. ξ: configuration not given here. Octanoyl(7-Me) = CC(C)CCCCCC(=O)*; Hexanoyl(4ξ-Me) = CCC(C)CCC(=O)*; dOrn = NCCC[C@@H](N)C(=O)O; Orn = NCCC[C@H](N)C(=O)O; Dap = NC[C@H](N)C(=O)O

Experiments:
E. coli ATCC 25922 = assay type: cell-based, Escherichia coli; conditions: for MIC (µg/mL) against E. coli (ATCC 25922): (Supplement 2)
Procedure: (§1) Linear laterocidine (LL-OH, 4) and linear brevicidine (LB-OH, 5) were first synthesized by Fmoc SPPS, starting from 2-chlorotrityl (2-CT) chloride resin. The antibacterial activity of these peptides was then compared to brevicidine (1) and laterocidine (2) using minimum inhibitory concentration (MIC)/microbroth dilution assays (Table 1). The MICs of all peptides were determined against a panel of Gram-negative and Gram-positive ESKAPE pathogens. Additionally, a strain of E. coli carrying the mcr-1 gene was included in the panel. The mcr-1 gene is a transferrable plasmid that confers resistance against colistin, a last-resort antibiotic for Gram-negative infections, by reducing the overall negative charge of lipopolysaccharide (LPS) through modification of lipid A with phosphoethanolamine. The propensity for cationic antibiotics to bind to the cell membrane is therefore reduced. This gene has been observed in more than 27 bacterial species over six continents.[26] The spread of the mcr-1 gene could render colistin ineffectual; therefore, novel antibacterials are urgently required to overcome this form of resistance.
(§2) All minimum inhibitory concentrations (MICs) were determined according to Clinical and Laboratory Standards Institute (CLSI) guidelines. Blood agar plates were inoculated with glycerol stocks of E. coli ATCC 25922, K. pneumoniae ATCC 13883, A. baumannii ATCC 17961, P. aeruginosa PAO1, and S. aureus USA300. The inoculated agar plates were then incubated for 16 h at 37 °C. Individually grown colonies were subsequently used to inoculate 5 mL aliquots of TSB that were then incubated at 37 °C with shaking at 220 rpm. E. coli 25922 MCR-1 glycerol stock was used to inoculate 5 mL of TSB supplemented with kanamycin that was then incubated for 16 h at 37 °C with shaking at 220 rpm. The next day the culture was diluted 100-fold in TSB supplemented with kanamycin and incubated at 37 °C with shaking at 220 rpm. In parallel, the lipopeptide antibiotics DMSO stocks to be assessed were serially diluted with MHB in polypropylene 96-well plates (50 μL in each well). Colistin sulfate stocks were dissolved in water before being diluted with MHB. Aliquots of the inoculated TSB were incubated until an OD600 of around 0.5 was reached. The bacterial suspensions were then diluted with MHB (2 × 10^5 CFU/mL) and added to the microplates containing the test compounds (50 μL to each well). The well plates were sealed with an adhesive membrane and after 18 h of incubation at 37 °C with shaking at 600 rpm, the wells were visually inspected for bacterial growth. MIC values reported are based on three technical replicates and defined as the lowest concentration of the compound that prevented visible growth of bacteria.

E. coli (MCR-1) = assay type: cell-based, Escherichia coli; conditions: microbroth dilution per CLSI, MHB, 18 h at 37 °C, visual inspection, three technical replicates, E. coli 25922 carrying mcr-1
Procedure: as §1, §2

A. baumannii ATCC 17961 = assay type: cell-based, Acinetobacter baumannii; conditions: microbroth dilution per CLSI, MHB, 18 h at 37 °C, visual inspection, three technical replicates
Procedure: as §1, §2

S. aureus USA300 = assay type: cell-based, Staphylococcus aureus; conditions: microbroth dilution per CLSI, MHB, 18 h at 37 °C, visual inspection, three technical replicates
Procedure: as §1, §2

K. pneumoniae ATCC 13883 = assay type: cell-based, Klebsiella pneumoniae; conditions: microbroth dilution per CLSI, MHB, 18 h at 37 °C, visual inspection, three technical replicates
Procedure: as §1, §2

Row | SMILES | MIC (µg/mL) against E. coli (ATCC 25922) (E. coli ATCC 25922) [µg/mL] | further results
1 | CCC(C)CCC(=O)N[C@H](CC(N)=O)C(=O)N[C@H](Cc1ccc(O)cc1)C(=O)N[C@H](Cc1c[nH]c2ccccc12)C(=O)N[C@H](CCCN)C(=O)N[C@@H](C)C(=O)NCC(=O)N[C@H](CCCN)C(=O)N[C@@H](Cc1c[nH]c2ccccc12)C(=O)N[C@H](C(=O)N[C@H](C(=O)NCC(=O)N[C@@H](CO)C(N)=O)[C@@H](C)CC)[C@@H](C)O (some centres unmarked) [LB(Ala5)-NH2 (21)] ({Hexanoyl(4ξ-Me)}-[dN][dY][dW][dOrn]AG[dOrn]WTIGS-NH2) | >32 | –
2 | CCC(C)CCC(=O)N[C@H](CC(N)=O)C(=O)N[C@H](Cc1ccc(O)cc1)C(=O)N[C@H](Cc1c[nH]c2ccccc12)C(=O)N[C@H](CCCN)C(=O)N[C@@H](CCCN)C(=O)NCC(=O)N[C@H](C)C(=O)N[C@@H](Cc1c[nH]c2ccccc12)C(=O)N[C@H](C(=O)N[C@H](C(=O)NCC(=O)N[C@@H](CO)C(N)=O)[C@@H](C)CC)[C@@H](C)O (stereo partly drawn) [LB(D-Ala7)-NH2 (23)] ({Hexanoyl(4ξ-Me)}-[dN][dY][dW][dOrn][Orn]G[dA]WTIGS-NH2) | >32 | –
3 | CCC(C)CCC(=O)N[C@H](CC(N)=O)C(=O)N[C@H](C)C(=O)N[C@H](Cc1c[nH]c2ccccc12)C(=O)N[C@H](CCCN)C(=O)N[C@@H](CCCN)C(=O)NCC(=O)N[C@H](CCCN)C(=O)N[C@@H](Cc1c[nH]c2ccccc12)C(=O)N[C@H](C(=O)N[C@H](C(=O)NCC(=O)N[C@@H](CO)C(N)=O)[C@@H](C)CC)[C@@H](C)O (stereo partly drawn) [LB(D-Ala2)-NH2 (18)] ({Hexanoyl(4ξ-Me)}-[dN][dA][dW][dOrn][Orn]G[dOrn]WTIGS-NH2) | >32 | –
4 | CCC(C)CCC(=O)N[C@H](CC(N)=O)C(=O)N[C@H](Cc1ccc(O)cc1)C(=O)N[C@H](Cc1c[nH]c2ccccc12)C(=O)N[C@H](CCCN)C(=O)N[C@@H](CCCN)C(=O)NCC(=O)N[C@H](CCCN)C(=O)N[C@@H](C)C(=O)N[C@H](C(=O)N[C@H](C(=O)NCC(=O)N[C@@H](CO)C(N)=O)[C@@H](C)CC)[C@@H](C)O (some centres unmarked) [LB(Ala8)-NH2 (24)] ({Hexanoyl(4ξ-Me)}-[dN][dY][dW][dOrn][Orn]G[dOrn]ATIGS-NH2) | >32 | –
5 | CCC(C)CCC(=O)N[C@H](CC(N)=O)C(=O)N[C@H](Cc1ccc(O)cc1)C(=O)N[C@H](Cc1c[nH]c2ccccc12)C(=O)N[C@H](CCCN)C(=O)N[C@@H](CCCN)C(=O)NCC(=O)N[C@H](CCCN)C(=O)N[C@@H](Cc1c[nH]c2ccccc12)C(=O)N[C@H](C(=O)N[C@@H](C)C(=O)NCC(=O)N[C@@H](CO)C(N)=O)[C@@H](C)O (some centres unmarked) [LB(Ala10)-NH2 (26)] ({Hexanoyl(4ξ-Me)}-[dN][dY][dW][dOrn][Orn]G[dOrn]WTAGS-NH2) | >32 | –
6 | CC[C@H](C)[C@H](NC(=O)[C@H](CN)NC(=O)[C@H](Cc1c[nH]c2ccccc12)NC(=O)[C@@H](CCCN)NC(=O)CNC(=O)[C@H](CCCN)NC(=O)[C@@H](CCCN)NC(=O)[C@@H](Cc1c[nH]c2ccccc12)NC(=O)[C@@H](Cc1ccc(O)cc1)NC(=O)[C@@H](CO)NC(=O)CCCCCC(C)C)C(=O)N[C@@H](CC(N)=O)C(=O)NCC(=O)NCC(N)=O [LL(Dap9)-NH2 (52)] ({Octanoyl(7-Me)}-[dS][dY][dW][dOrn][Orn]G[dOrn]W[Dap]INGG-NH2) | 8 (≈ 4.98 µM) | Antibacterial activity (MIC) E. coli ATCC 25922 (E. coli ATCC 25922; MIC, microbroth dilution per CLSI, MHB, 18 h at 37 °C, visual inspection, three technical replicates): 8 µg/mL; Antibacterial activity (MIC) E. coli (MCR-1) (E. coli (MCR-1)): 8 µg/mL; Antibacterial activity (MIC) A. baumannii ATCC 17961 (A. baumannii ATCC 17961): 16 µg/mL; Antibacterial activity (MIC) S. aureus USA300 (S. aureus USA300): >32 µg/mL; Antibacterial activity (MIC) K. pneumoniae ATCC 13883 (K. pneumoniae ATCC 13883): 32 µg/mL
